Measurements taken from patent US12344600B2, “c-Myc mRNA translation modulators and uses thereof in the treatment of cancer” (Anima Biotech Inc., priority 2022, dated 2025).

The compounds below were run on c-Myc (assay: c-Myc immunofluorescence assay). Conditions: A549 cells, 24 hours, anti-c-Myc immunofluorescence.
Assay type: cell-based, human
In short: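 Read-out is imaged c-Myc immunofluorescence, nucleus-segmented, in A549 lung carcinoma cells exposed to compound dose series for 24 h after 48 h growth. Fixation 4% paraformaldehyde, Triton permeabilization, antibody staining at room temperature; EC50 from logistic fit of signal versus concentration.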

Row | SMILES | Myc Efficacy (−LogEC50)
1 | COc1ccc(-c2noc(N3CCC(C(=O)NCC4CCN(CC5CCN(C)CC5)C4)CC3)n2)cc1 (centres unmarked) [Compound 353, 1-(3-(4-methoxyphenyl)-1,2,4-oxadiazol-5-yl)-N-((1-((1-methylpiperidin-4-yl)methyl)pyrrolidin-3-yl)methyl)piperidine-4-carboxamide] | ++ (++ ≥5 and <6)
2 | O=C(NCCCN1CCC(Cc2ccccn2)CC1)N1CCN(c2nc(-c3ccc(Cl)cc3)no2)CC1 [Compound 458, 4-(3-(4-chlorophenyl)-1,2,4-oxadiazol-5-yl)-N-(3-(4-(pyridin-2-ylmethyl)piperidin-1-yl)propyl)piperazine-1-carboxamide] | +++ (+++ ≥6)
3 | COc1ccc(-c2noc(N3CCC(C(=O)NCC4CCN(Cc5cccc(F)c5)C4)CC3)n2)cc1 (centres unmarked) [Compound 332, N-((1-(3-fluorobenzyl)pyrrolidin-3-yl)methyl)-1-(3-(4-methoxyphenyl)-1,2,4-oxadiazol-5-yl)piperidine-4-carboxamide] | ++ (++ ≥5 and <6)
4 | CCN1CCC(CNC(=O)C2CCN(c3nc(-c4ccc(OC)cc4)no3)CC2)C1 (centres unmarked) [Compound 376, N-((1-ethylpyrrolidin-3-yl)methyl)-1-(3-(4-methoxyphenyl)-1,2,4-oxadiazol-5-yl)piperidine-4-carboxamide] | − (− ≤3)
5 | COc1ccc(-c2coc(N3CCC(C(=O)NCC4CCN(Cc5ccc(C)cc5)C4)CC3)n2)cc1 (centres unmarked) [Compound 196, 1-(4-(4-methoxyphenyl)oxazol-2-yl)-N-((1-(4-methylbenzyl)pyrrolidin-3-yl)methyl)piperidine-4-carboxamide] | ++ (++ ≥5 and <6)
6 | COc1ccc(-c2noc(N3CCC(C(=O)NCC4(c5ccc(F)cc5F)CC4)CC3)n2)cc1 [Compound 307, N-((1-(2,4-difluorophenyl)cyclopropyl)methyl)-1-(3-(4-methoxyphenyl)-1,2,4-oxadiazol-5-yl)piperidine-4-carboxamide] | + (+ >3 and <5)
7 | CCCNC(=O)C1CCN(c2nc(-c3ccc(OC)cc3)no2)CC1 [Compound 127, 1-(3-(4-methoxyphenyl)-1,2,4-oxadiazol-5-yl)-N-propylpiperidine-4-carboxamide] | + (+ >3 and <5)
8 | COc1ccc(-c2noc(N3CCC(C(=O)NCC4CCN(Cc5ccc(C)cc5)C4)CC3)n2)nc1 (centres unmarked) [Compound 185, 1-(3-(5-methoxypyridin-2-yl)-1,2,4-oxadiazol-5-yl)-N-((1-(4-methylbenzyl)pyrrolidin-3-yl)methyl)piperidine-4-carboxamide] | ++ (++ ≥5 and <6)
9 | Cc1ccc(CN2CCC(CNC(=O)C3CCN(c4nc(-c5ccc(OC(F)F)cc5)no4)CC3)C2)cc1 (centres unmarked) [Compound 238, 1-(3-(4-(difluoromethoxy)phenyl)-1,2,4-oxadiazol-5-yl)-N-((1-(4-methylbenzyl)pyrrolidin-3-yl)methyl)piperidine-4-carboxamide] | +++ (+++ ≥6)
10 | O=C(C1CCN(c2nc(-c3cccc(Cl)c3)no2)CC1)N1CCOCC1 [Compound 165, (1-(3-(3-chlorophenyl)-1,2,4-oxadiazol-5-yl)piperidin-4-yl)(morpholino)methanone] | + (+ >3 and <5)
11 | O=C(C1CCN(c2nc(-c3ccccc3)no2)CC1)N1CCN(Cc2ccccc2)CC1 [Compound 131, (4-benzylpiperazin-1-yl)(1-(3-phenyl-1,2,4-oxadiazol-5-yl)piperidin-4-yl)methanone] | + (+ >3 and <5)
12 | COc1ccc(-c2noc(N3CCC(Oc4ccccc4)CC3)n2)cc1 [Compound 135, 3-(4-methoxyphenyl)-5-(4-phenoxypiperidin-1-yl)-1,2,4-oxadiazole] | − (− ≤3)
13 | COc1ccc(-c2noc(N3CCN(C(=O)Nc4cccc(Cl)c4)CC3)n2)cc1 [Compound 194, N-(3-chlorophenyl)-4-(3-(4-methoxyphenyl)-1,2,4-oxadiazol-5-yl)piperazine-1-carboxamide] | + (+ >3 and <5)
14 | COc1ccc(-c2noc(N3CCC(C(=O)NCc4cc(C)ccc4F)CC3)n2)cc1 [Compound 311, N-(2-fluoro-5-methylbenzyl)-1-(3-(4-methoxyphenyl)-1,2,4-oxadiazol-5-yl)piperidine-4-carboxamide] | − (− ≤3)
15 | COc1ccc(-c2noc(N3CCC(C(=O)NC[C@H]4CCCN4C)CC3)n2)cc1 [Compound 252, (R)-1-(3-(4-methoxyphenyl)-1,2,4-oxadiazol-5-yl)-N-((1-methylpyrrolidin-2-yl)methyl)piperidine-4-carboxamide] | + (+ >3 and <5)
16 | COc1ccc(-c2noc(N3CCC(C(=O)NCC4CCN(CC(F)F)C4)CC3)n2)cc1 (centres unmarked) [Compound 367, N-((1-(2,2-difluoroethyl)pyrrolidin-3-yl)methyl)-1-(3-(4-methoxyphenyl)-1,2,4-oxadiazol-5-yl)piperidine-4-carboxamide] | + (+ >3 and <5)

Row | SMILES | Myc Efficacy (−LogEC50)
17 | COc1ccc(-c2noc(N3CCC(C(=O)NCC4CCN(CC=C(C)C)C4)CC3)n2)cc1 (centres unmarked) [Compound 410, 1-(3-(4-methoxyphenyl)-1,2,4-oxadiazol-5-yl)-N-((1-(3-methylbut-2-en-1-yl)pyrrolidin-3-yl)methyl)piperidine-4-carboxamide] | ++ (++ ≥5 and <6)
18 | COc1ccc(-c2noc(NCCCN3CCC(Cc4ccccc4)CC3)n2)cc1 [Compound 125, N-(3-(4-benzylpiperidin-1-yl)propyl)-3-(4-methoxyphenyl)-1,2,4-oxadiazol-5-amine] | + (+ >3 and <5)
19 | COc1ccc(-c2noc(N3CCC(C(=O)NCc4cnc(C(F)(F)F)s4)CC3)n2)cc1 [Compound 318, 1-(3-(4-methoxyphenyl)-1,2,4-oxadiazol-5-yl)-N-((2-(trifluoromethyl)thiazol-5-yl)methyl)piperidine-4-carboxamide] | + (+ >3 and <5)
20 | COc1ccc(-c2noc(N3CCNCC3)n2)cc1 [Compound 138, 3-(4-methoxyphenyl)-5-(piperazin-1-yl)-1,2,4-oxadiazole] | + (+ >3 and <5)
21 | CC(=O)Nc1ccc(-c2noc(N3CCC(C(=O)NCC4CCN(Cc5ccc(C)cc5)C4)CC3)n2)cc1 (centres unmarked) [Compound 184, 1-(3-(4-acetamidophenyl)-1,2,4-oxadiazol-5-yl)-N-((1-(4-methylbenzyl)pyrrolidin-3-yl)methyl)piperidine-4-carboxamide] | + (+ >3 and <5)
22 | CN1CCC[C@H](CN2CCC(CNC(=O)C3CCN(c4nc(-c5ccc(C#N)cc5)no4)CC3)C2)C1 (stereo partly drawn) [Compound 467, 1-(3-(4-cyanophenyl)-1,2,4-oxadiazol-5-yl)-N-((1-(((S)-1-methylpiperidin-3-yl)methyl)pyrrolidin-3-yl)methyl)piperidine-4-carboxamide] | + (+ >3 and <5)
23 | O=C(NCCCN1CCC(Cc2ccccc2F)CC1)N1CCN(c2nc(-c3ccc(OC(F)F)cc3)no2)CC1 [Compound 438, 4-(3-(4-(difluoromethoxy)phenyl)-1,2,4-oxadiazol-5-yl)-N-(3-(4-(2-fluorobenzyl)piperidin-1-yl)propyl)piperazine-1-carboxamide] | +++ (+++ ≥6)
24 | COc1ccc(-c2noc(N3CCC(C(=O)NCC4CCN(C(=O)c5ccc(C)cc5)C4)CC3)n2)cc1 (centres unmarked) [Compound 222, 1-(3-(4-methoxyphenyl)-1,2,4-oxadiazol-5-yl)-N-((1-(4-methylbenzoyl)pyrrolidin-3-yl)methyl)piperidine-4-carboxamide] | ++ (++ ≥5 and <6)
25 | COc1ccc(-c2noc(N3CCC(C(=O)NCC4(O)CCCCC4)CC3)n2)cc1 [Compound 270, N-((1-hydroxycyclohexyl)methyl)-1-(3-(4-methoxyphenyl)-1,2,4-oxadiazol-5-yl)piperidine-4-carboxamide] | + (+ >3 and <5)
26 | COc1ccc(-c2noc(C3CCC(C(=O)NCC4CCN(Cc5ccccc5)C4)CC3)n2)cc1 (centres unmarked) [Compound 174, (1r,4r)-N-((1-benzylpyrrolidin-3-yl)methyl)-4-(3-(4-methoxyphenyl)-1,2,4-oxadiazol-5-yl)cyclohexane-1-carboxamide] | ++ (++ ≥5 and <6)
27 | COc1ccc(-c2noc(N3CCC(C(=O)NCC4CCN(Cc5cccs5)C4)CC3)n2)cc1 (centres unmarked) [Compound 372, 1-(3-(4-methoxyphenyl)-1,2,4-oxadiazol-5-yl)-N-((1-(thiophen-2-ylmethyl)pyrrolidin-3-yl)methyl)piperidine-4-carboxamide] | ++ (++ ≥5 and <6)
28 | COc1ccc(-c2noc(N3CCC(C(=O)NC(C)Cc4ccccn4)CC3)n2)cc1 (centres unmarked) [Compound 263, 1-(3-(4-methoxyphenyl)-1,2,4-oxadiazol-5-yl)-N-(1-(pyridin-2-yl)propan-2-yl)piperidine-4-carboxamide] | − (− ≤3)
29 | COc1ccc(-c2noc(N3CCC(C(=O)NCC4CCN(Cc5ccsc5)C4)CC3)n2)cc1 (centres unmarked) [Compound 357, 1-(3-(4-methoxyphenyl)-1,2,4-oxadiazol-5-yl)-N-((1-(thiophen-3-ylmethyl)pyrrolidin-3-yl)methyl)piperidine-4-carboxamide] | ++ (++ ≥5 and <6)
30 | COc1ccc(-c2noc(N3CCC(C(=O)NCC4CCN(CC5(C)CCOCC5)C4)CC3)n2)cc1 (centres unmarked) [Compound 377, 1-(3-(4-methoxyphenyl)-1,2,4-oxadiazol-5-yl)-N-((1-((4-methyltetrahydro-2H-pyran-4-yl)methyl)pyrrolidin-3-yl)methyl)piperidine-4-carboxamide] | + (+ >3 and <5)
31 | COc1ccc(-c2noc(N3CCC(C(=O)Nc4cccc(C)c4)CC3)n2)cc1 [Compound 211, 1-(3-(4-methoxyphenyl)-1,2,4-oxadiazol-5-yl)-N-(m-tolyl)piperidine-4-carboxamide] | + (+ >3 and <5)
32 | COc1ccc(-c2noc(N3CCC(C(=O)NCC4CCN(CC5=CCCCC5)C4)CC3)n2)cc1 (centres unmarked) [Compound 409, N-((1-(cyclohex-1-en-1-ylmethyl)pyrrolidin-3-yl)methyl)-1-(3-(4-methoxyphenyl)-1,2,4-oxadiazol-5-yl)piperidine-4-carboxamide] | ++ (++ ≥5 and <6)
